Here are results for 11 molecules from patent US9096841B2, “Preparation of beta-amino acids” (BASF SE, priority 2009, dated 2015).

Some results are limits rather than exact numbers.

The test system of data set [1] is hydantoinase (obtained from Sigma). Kind of data set: Hydantoinase catalysed hydrolysis of racemic 6-PDHU and reverse cyclisation, chiral reverse-phase HPLC. The data set is classed as biochemical, Vigna angularis. The settings on record: for cyclisation of N-carbamoyl-β-phenylalanine (reverse reaction): with hydantoinase. Here is the method:
Unless otherwise stated all experiments were carried out on a 5 mM scale of 6-PDHU (4.75 mg) in 5 mL tris buffer (0.1 M pH 7.5) with 1U of commercially available hydantoinase from Vigna angularis (35 mg, obtained from Sigma, St. Louis, USA) in 15 mL Falcon tubes, incubated in a thermomixer (Falcon) at 750 rpm and a temperature of 50° C.
For chiral rpHPLC the following column, buffer and running conditions were used: • Astec Chirobiotic™ T 25 cm×4.6 mm, 5 μm (Sigma-Aldrich, St. Louis, USA) Ammonium Acetate buffer (pH 5.5):Methanol, 70:30, 25° C., 0.5 mL/min
Initially the hydantoinase (obtained form Sigma, St. Louis, USA) catalysed hydrolysis of (±)-6-PDHU (racemic 6-phenyldihydrouracil) (4a in FIG. 2: R=Ph) was studied as a model system. Reactions were carried out at a substrate concentration of 5 mM in Tris buffer [pH 7.5] and monitored by reverse-phase chiral HPLC as described in Example 7, which allowed simultaneous determination of both the extent of conversion in the reaction and also the enantiomeric excess of unreacted dihydrouracil 4a and the N-carbamoyl derivative 5 (FIG. 4, cf. also Scheme 2). […] All reactions gave an equilibrium concentration of 6-PDHU:(S)-NCBPA=51:49. The enantiomeric excess of (S)-NCBPA exceeded 96% during the whole observation period.

Data set [2] deals with hydantoinase obtained from Sigma. Kind of data set: Specific activity of commercially available hydantoinase (Sigma) towards substrates, HPLC. Particulars: Enzyme from Sigma; 5 mM substrate, 50 mM Tris HCl pH 7.5, 30 min, 40° C. The class given is biochemical, Vigna angularis. Here is the method:
(§1) To determine and compare the specific activity of the Sigma enzyme and the purified hydantoinase (BP) 5 mM of hydantoin, 5-phenylhydantoin or 6-phenyldihydrouracil, respectively, in 50 mM Tris HCl pH 7.5 were incubated with different amounts of enzyme for 30 min at 40° C. The reaction was stopped by adding conc. HCl and then measured by HPLC.

Data set [3] concerns hydantoinase isolated in Example 2. Kind of data set: Specific activity of the hydantoinase isolated in Example 2 towards substrates, HPLC. The data set is classed as biochemical, Vigna angularis. Particulars: Enzyme from Example 2; 5 mM substrate, 50 mM Tris HCl pH 7.5, 30 min, 40° C. Here is the method: as §1
Data set [4] is described as follows: pH dependency of chemical hydrolysis of 6-PDHU in Tris buffer without enzyme. The class given is physicochemical. Particulars: 24 hours, no enzyme. Here is the method: 6-PDHU was incubated at 50° C. for 24 hours in Tris buffer at different pH values. Appreciable background hydrolysis of 6-PDHU occurred with a strong pH and buffer dependency. In Tris buffer at pH 7, a background hydrolysis of 0.5% was observed. At pH 9, the background hydrolysis amounted to ca. 20% (FIG. 7).

The subject of data set [5] is D-hydantoinase from Sigma. Kind of data set: pH/buffer dependency of hydantoinase conversion of 6-PDHU. The class given is biochemical, Vigna angularis. Particulars: 22 hours. Here is the method: 6-PDHU was incubated in phosphate buffer (0.1 M, potassium dihydrogen phosphate and dipotassium hydrogen phosphate, volumes adjusted to the appropriate pH) or Tris buffer at various pH values for (up to 8h, using 7 g/L D-hydantoinase from Sigma). […] In an additional experiment conversion rates were determined for phosphate or Tris buffers at various pH values over time. 5 mM 6-PHDU was incubated in phosphate buffer (pH 6.0, 7.0, 7.5, 8.0) and Tris buffer (pH 7.5) buffers for 22 hours. The results are shown in FIG. 9 (wherein diamonds, squares, triangles and crosses represent phosphate buffer at pH 6, pH 7, pH 7.5 or pH 8, respectively, and dots represents Tris buffer at pH 7.5) and Table 3 (ee=enantiomeric excess [%]).

The next data set has as its system D-hydantoinase (Sigma). In words: Substrate specificity of Vigna angularis hydantoinase. The class given is biochemical. The settings on record: Tris buffer pH 7.5, 0.1 M; D-hydantoinase 7 g/L; substrate 5 mM. Here is the method:
Various substrates were synthesized as described in Example 4 and subjected to hydantoinase catalyzed conversion [Tris buffer (pH 7.5, 0.1 M, 1.0 mL), D-hydantoinase, (Sigma, 7 g/L), substrate (5 mM solutions predissolved in buffer unless aromatic substituent (4a, 4b, 4c), in which case substrate is dissolved in 100 microlitres DMSO and added to 900 microlitres of buffer)]. The reaction is shown in FIG. 10, the results are shown in Table 4, wherein the E-value is defined as follows: E value=(ln(1−[product](1+ee)))/(ln(1−[product]*(1−ee)))

In data set [6] the test system is Pseudomonas putida IFO 12996. The settings on record: hydrolysis using Pseudomonas putida IFO 12996, JP06261787; cited from earlier work.

`NC(=O)NC(CC(=O)O)c1ccccc1` (racemic) [N-carbamoyl-β-phenylalanine, (±)—N-carbamoyl-β-phenylalanine]: in data set [1], the “cyclisation of N-carbamoyl-β-phenylalanine (reverse reaction)” value is on record as “highly (S)-selective”.
Regarding `O=C1CC(c2ccccc2)NC(=O)N1` (racemic) [Substrate 4a, (±)-6-phenyldihydrouracil], the specific activity is given as 6 in data set [2] and 72 in data set [3]. Further, the E value is recorded as over 100 in data set [1] (selective for the (S)-enantiomer, 5 mM substrate, Tris buffer pH 7.5) and over 200 with D-hydantoinase (Sigma). Moreover, the background hydrolysis in data set [4] (Tris buffer pH 7, 50° C.) is reported as 0.5%; in data set [4] (Tris buffer pH 9, 50° C.), “ca. 20%”. Further, the “ee (enantiomeric excess)” value in data set [5] (Phosphate buffer pH 6.00, 5 mM) is over 99.90%; in data set [5] (Phosphate buffer pH 7.00, 5 mM), over 99.90%; in data set [5] (Phosphate buffer pH 7.50, 5 mM), 96.62%; in data set [5] (Phosphate buffer pH 8.00, 5 mM) it was 92.73%; in data set [5] (Tris buffer pH 7.50, 5 mM) it was over 99.90%. Further, the “Relative rate of enzymatic hydrolysis” value in the data set on D-hydantoinase (Sigma) was found to be 7. Also, in data set [6], the enantiomeric excess result is “up to 51%”.
As for `O=C1NC(=O)C(c2ccccc2)N1` (stereo not shown) [5-Phenylhydantoin, 5-phenylhydantoin], the results for the specific activity in data set [2] and in data set [3] were 261 and 557, respectively.
`NC(=O)N[C@H](CC(=O)O)c1ccccc1` [(R)-NCBPA, (R)—N-carbamoyl-β-phenylalanine]: the “cyclisation of N-carbamoyl-β-phenylalanine (reverse reaction)” value in data set [1] is listed as “no appreciable cyclisation”.
Regarding `NC(=O)N[C@@H](CC(=O)O)c1ccccc1` [(S)-NCBPA, (S)-N-carbamoyl-β-pheynylalanine], the “enantiomeric excess of (S)-NCBPA” value in data set [1] (during the whole observation period) is on record as “exceeded 96%”.
For the molecule `O=C1CNC(=O)N1` [Hydantoin, hydantoin], the specific activity in data set [2] stood at 217; in data set [3] it was 425.
Regarding `O=C1CC(c2ccc(F)cc2)NC(=O)N1` (stereo not shown) [Substrate 4b, 6-(4-fluoro-phenyl)-dihydrouracil], in the data set on D-hydantoinase (Sigma), the E value is on record as over 100 and the “Relative rate of enzymatic hydrolysis” value amounted to 15.
On the same counts, the results for `O=C1CC(c2ccc(Cl)cc2)NC(=O)N1` (stereo not shown) [Substrate 4c, 6-(4-chloro-phenyl)-dihydrouracil] are over 100 and 41.
Take `O=C1CCNC(=O)N1` [Substrate 4e, dihydrouracil]: the “Relative rate of enzymatic hydrolysis” value in the data set on D-hydantoinase (Sigma) is 100.
Turning to `CC1CC(=O)NC(=O)N1` (stereo not shown) [Substrate 4h, 6-methyldihydrouracil], in the data set with D-hydantoinase (Sigma), the E value turned out to be 5 and the “Relative rate of enzymatic hydrolysis” value is listed as 52.
Regarding `CC1CNC(=O)NC1=O` (stereo not shown) [Substrate 8, 5-methyldihydrouracil], the “Relative rate of enzymatic hydrolysis” value in the data set with D-hydantoinase (Sigma) came to 23.
